Source: patent US20260165323A1, “USE OF STROBILURIN TYPE COMPOUNDS FOR COMBATING PHYTOPATHOGENIC FUNGI CONTAINING AN AMINO ACID SUBSTITUTION F129L IN THE MITOCHONDRIAL CYTOCHROME B PROTEIN CONFERRING RESISTANCE TO QO […]” (priority 2022, published 2026)

Legend:
[1] = test system: Leptosphaeria nodorum (LEPTNO); assay: Use example 9: microtest, growth of Leptosphaeria nodorum (LEPTNO); assay type: cell-based; conditions: relative growth vs compound-free control (100%), 7 days, Table 10
Description: (§1) The active compounds were formulated separately as a stock solution having a concentration of 10000 ppm in dimethyl sulfoxide. The stock solutions were mixed according to the ratio, pipetted onto a micro titer plate (MTP) and diluted with water to the stated concentrations. A spore suspension of one of the following fungal plant pathogens in aqueous bio malt solution • was then added for the respective use example: • Use example 5: Alternaria solani (ALTESO) • Use example 6: Botrytis cinerea (BOTRCI) • Use example 7: Cercospora sojina (CERCSO) • Use example 8: Colletotrichum orbiculare (COLLLA) • Use example 9: Leptosphaeria nodorum (LEPTNO) • Use example 10: Drechslera teres (PYRNTE) containing the amino acid substitution F129L in the mitochondrial cytochrome b protein conferring resistance to Qo inhibitors • Use example 11: Sclerotinia sclerotiorum (SCLESC), solute with ultrasonic from a filter membrane
(§2) The plates were placed in a water vapor-saturated chamber at a temperature of 18° C. Using an absorption photometer, the MTPs were measured at 405 nm 7 days after the inoculation.
(§3) The measured parameters were compared to the growth of the active compound-free control variant (100%) and the fungus-free blank value to determine the relative growth in % of the pathogens in the respective active compounds.

[2] = test system: Phakopsora pachyrhizi containing the amino acid substitution F129L in the mitochondrial cytochrome b protein; assay: Use Example 1: protective control of soybean rust on soybeans (PHAKPA P2); assay type: in vivo; conditions: inoculated 2 days after spraying, % diseased leaf area
Method in brief: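 Soybean seedling leaves sprayed to run-off with compound in acetone/DMSO–Wettol–water at the stated concentration, kept 2 days at 23-27° C, then inoculated with Qo-inhibitor-resistant F129L P. pachyrhizi. After 24 h at ~95% RH, 20-24° C, and up to 14 days in greenhouse, % diseased leaf area scored visually.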

[3] = test system: Phakopsora pachyrhizi containing the amino acid substitution F129L in the mitochondrial cytochrome b protein; assay: Use Example 2: protective control of soybean rust on soybeans (PHAKPA P6); assay type: in vivo; conditions: inoculated six days after spraying, % diseased leaf area
Method in brief: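 Compound in acetone and/or DMSO with Wettol (99:1), diluted with water, was sprayed to run-off on potted soybean seedlings. After six days at 23–27°C and 60–80% RH, plants were inoculated with a Qo-resistant F129L strain and held 24 h at about 95% RH. Percent diseased leaf area was scored visually after up to 14 days.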

Puccinia recondita [4] = assay: Use Example 3: curative control of brown rust on wheat (PUCCRT K4); assay type: in vivo; conditions: % diseased leaf area
Method in brief: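 Wheat seedlings inoculated with Puccinia recondita spores, held 24 h at 95–99% RH, 20–24° C in dark, then 3 days in greenhouse before spraying to run-off (curative). Compound in acetone/DMSO–Wettol–water. After 5–7 further days at 20–24° C, 65–70% RH, % diseased leaf area scored visually.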

Puccinia recondita [5] = assay: Use Example 4: preventative control of brown rust on wheat (PUCCRT P7); assay type: in vivo; conditions: inoculated seven days after spraying, % diseased leaf area
Method in brief: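 First two leaves of potted wheat seedlings sprayed to run-off with compound in acetone/DMSO–emulsifier–water, then inoculated with Puccinia recondita spores seven days later. Plants held 24 h dark at 95–99% RH and 20–24 °C, then 9–11 days in greenhouse; diseased leaf area (%) scored visually.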

[6] = test system: Cercospora sojina (CERCSO); assay: Use example 7: microtest, growth of Cercospora sojina (CERCSO); assay type: cell-based; conditions: relative growth vs compound-free control (100%); for Growth (%) CERCSO Use ex. 7: 125 ppm, 7 days, Table 12; for Growth at 31 ppm (%) CERCSO Use ex. 7: 7 days after inoculation
Description: as §1, §2, §3

[7] = test system: Drechslera teres (PYRNTE) containing the amino acid substitution F129L in the mitochondrial cytochrome b protein; assay: Use example 10: microtest, growth of Drechslera teres (PYRNTE) F129L; assay type: cell-based; conditions: relative growth vs compound-free control (100%), 7 days; for Growth (%) PYRNTE F129L Use ex. 10: 125 ppm, Table 12
Description: as §1, §2, §3

[8] = test system: Colletotrichum orbiculare (COLLLA); assay: Use example 8: microtest, growth of Colletotrichum orbiculare (COLLLA); assay type: cell-based; conditions: 2 ppm; relative growth vs compound-free control (100%), 7 days after inoculation
Description: as §1, §2, §3

Structure (SMILES) | Growth at 125 ppm (%) LEPTNO Use ex. 9 [1] | % PHAKPA (F129L) Disease level P2 at 4 ppm [2] | % PHAKPA (F129L) Disease level P2 at 16 ppm [2] | % PHAKPA (F129L) Disease level P6 at 4 ppm [3] | % PHAKPA (F129L) Disease level P6 at 16 ppm [3] | % PUCCRT Disease level K4 at 4 ppm (Puccinia recondita [4]) | % PUCCRT Disease level K4 at 16 ppm (Puccinia recondita [4]) | % PUCCRT Disease level P7 at 4 ppm (Puccinia recondita [5]) | % PUCCRT Disease level P7 at 16 ppm (Puccinia recondita [5]) | Growth (%) CERCSO Use ex. 7 [6] | Growth (%) PYRNTE F129L Use ex. 10 [7] | Growth at 31 ppm (%) CERCSO Use ex. 7 [6] | Growth at 2 ppm (%) COLLLA Use ex. 8 [8] | Growth at 8 ppm (%) PYRNTE F129L Use ex. 10 [7]
COC/C(=N\OCc1c(C)cccc1/C(=N\OC)C(=O)OC)c1ccc(F)cc1 [I.2-A-82, reference compound] | 19% | – | – | – | – | – | – | – | – | – | – | – | – | –
CO/C=C(/C(=O)OC)c1cccc(Br)c1CO/N=C(\COC)c1ccc(F)cc1 [compound 10, Methyl-(E)-2-[3-bromo-2-[[(Z)-[1-(4-fluorophenyl)-2-methoxy-ethylidene]amino]oxymethyl]phenyl]-3-methoxy-prop-2-enoate] | 3% | 4% | 0% | 8% | 0% | 13% | 2% | 10% | 2% | – | – | – | – | –
CNC(=O)/C(=N/OC)c1cccc(Cl)c1CO/N=C(\COC)c1ccc(Cl)cc1 [compound 36] | – | 65% | 3% | 57% | 10% | 82% | 2% | 6% | 0% | 12% | 2% | – | – | –
COC/C(=N\OCc1c(C)cccc1/C(=N\OC)C(=O)OC)c1cccc(Cl)c1 [reference compound] | – | – | – | – | – | – | – | – | – | – | – | 60% | – | –
CNC(=O)/C(=N/OC)c1cccc(C)c1CO/N=C(\COC)c1ccc(Cl)cc1 [I.3-A-83, reference compound] | – | – | – | – | – | – | – | – | – | 89% | 26% | – | – | –
CNC(=O)/C(=N/OC)c1cccc(Cl)c1CO/N=C(\COC)c1ccccc1 [compound 4, (2E)-2-[3-chloro-2-[[(Z)-(2-methoxy-1-phenyl-ethylidene)amino]oxymethyl]phenyl]-2-methoxyimino-N-methyl-acetamide] | – | – | – | – | – | 77% | 9% | 17% | 4% | – | – | – | 29% | –
CO/C=C(/C(=O)OC)c1cccc(F)c1CO/N=C(\COC)c1ccc(F)cc1 [compound 17] | 0% | 8% | 0% | 17% | 2% | 53% | 6% | 37% | 8% | – | – | – | – | –
CO/C=C(/C(=O)OC)c1cccc(Cl)c1CO/N=C(\COC)c1cccc(F)c1 [compound 14, Methyl-(E)-2-[3-chloro-2-[[(Z)-[1-(3-fluorophenyl)-2-methoxy-ethylidene]amino]oxymethyl]phenyl]-3-methoxy-prop-2-enoate] | – | 3% | 0% | 2% | 0% | 22% | 1% | 13% | 2% | – | – | – | – | 3%
CNC(=O)/C(=N/OC)c1cccc(C)c1CO/N=C(\COC)c1ccccc1 [reference compound] | – | – | – | – | – | – | – | – | – | – | – | – | 44% | –
CO/C=C(/C(=O)OC)c1cccc(C)c1CO/N=C(\COC)c1cccc(F)c1 [1.2-A-75, reference compound] | – | – | – | – | – | – | – | – | – | – | – | – | – | 34%
COC/C(=N\OCc1c(Cl)cccc1/C(=N\OC)C(=O)OC)c1cccc(Cl)c1 [compound 37] | – | 67% | 18% | 72% | 39% | 75% | 72% | 40% | 5% | – | – | 40% | – | –
CO/C=C(/C(=O)OC)c1cccc(Cl)c1CO/N=C(\COC)c1cc(F)c(F)c(F)c1 [compound 67] | – | 10% | 0% | 14% | 0% | 36% | 3% | 4% | 3% | – | – | – | – | –
CO/C=C(/C(=O)OC)c1cccc(Br)c1CO/N=C(/C#Cc1ccc(F)cc1)COC [compound 8, Methyl-(E)-2-[3-bromo-2-[[(Z)-[3-(4-fluorophenyl)-1-(methoxymethyl)prop-2-ynylidene]amino]oxymethyl]phenyl]-3-methoxy-prop-2-enoate] | – | 2% | 0% | 12% | 0% | 6% | 0% | 0% | 0% | – | – | – | – | –
CO/C=C(/C(=O)OC)c1cccc(Cl)c1CO/N=C(\COC)c1ccc(F)cn1 [compound 131, Methyl (E)-2-[3-chloro-2-[[(Z)-[1-(5-fluoro-2-pyridyl)-2-methoxy-ethylidene]amino]oxymethyl]phenyl]-3-methoxy-prop-2-enoate] | – | 1% | 0% | 1% | 0% | 2% | 0% | 32% | 1% | – | – | – | – | –
COC/C(=N\OCc1c(Cl)cccc1/C(=N\OC)C(=O)OC)c1cccc(F)c1 [compound 25] | – | 82% | 23% | 90% | 58% | 83% | 78% | 35% | 5% | – | – | – | – | –
CCOC/C(=N\OCc1c(Cl)cccc1/C(=N\OC)C(=O)NC)c1c(F)cc(F)cc1F [compound 32] | – | 12% | 0% | 33% | 1% | 77% | 57% | 53% | 30% | – | – | – | – | –
CCOC/C(=N\OCc1c(Cl)cccc1/C(=N\OC)C(=O)NC)c1ccccc1F [compound 22] | – | 15% | 4% | 40% | 4% | 80% | 63% | 53% | 28% | – | – | – | – | –
